# pIC50: −log10 of the molar value. Where two headings read alike, the source gives them in different places.
# Assays:
# [1] = test system: passive cutaneous anaphylaxis (PCA); experiment: PCA response in rats; type: in vivo, Wistar male rats; conditions: Rattus norvegicus, read-out: 50% inhibiting dose (ED50) in the rat PCA
# Protocol: [1] PCA response in rats:
# Wistar male rats weighing 190-220 g were used. A diluted anti-dinitrophenyl-Ascalis (DNP-As) rat serum (each 0.1 ml) was intracutaneously injected into the back of the animals, by which the animals were passively sensitized. After 48 hours, Evans blue liquid (1.0 ml) containing DNP-As (20 mg, as a protein) was intravenously injected to the animals to induce PCA.
# After 30 minutes, rats were killed, and the skin at the response region was peeled off, and the amount of color was measured spectrophotometrically. Test compounds were administered 30 minutes (in case of intraperitoneal injection) or one hour (in case of oral administration) before the challenge with the antigen.
# The data of the references: disodium chromoglycate (SDCG) and Tranilast are also shown therein.
# [2] = test system: SRS-A; experiment: Anti-SRS-A action, Magnus method using the isolated guinea pig ileum; conditions: crude SRS-A after 3 minutes; for pIC50: read-out: 50% inhibition concentration
# Protocol: The anti-SRS-A activity of the compounds of the present invention was measured by Magnus method using the isolated guinea pig ileum. An extracted ileum of guinea pig was hung within a Magnus vessel which was maintained at 31±1° C. and then pre-treated with mepiramine to remove any effect by histamine. Test compound was administered in a dose of 3×10^-5 to 10^-3 M, and after 3 minutes, a previously prepared crude SRS-A was acted thereto, and then, the shrink rate (%) of the ileum was measured.
# [3] = Toxicity test in mice (LD50, Litchfield-Wilcoxon method); conditions: mouse, in vivo, po; mortality during 7 days; ddY male mice; read-out: 50% lethal dose (LD50)
# [4] = as above; conditions: mouse, in vivo, ip; mortality during 7 days; ddY male mice; read-out: 50% lethal dose (LD50)
# Protocol: The test compound was suspended in 0.5% carboxymethylcellulose solution, and the suspension was intraperitoneally administered to ddY male mice (weighing 20-25 g, one group: 10 mice). Based on the total mortality during 7 days after the administration of the test compound, the 50% lethal dose (LD50) was calculated by Litchfield-Wilcoxon method. The data of reference (Tranilast) are also shown therein.
# [5] = ip, 30 minutes before the challenge with the antigen
# [6] = po, 1 h, p.o., one hour before the challenge with the antigen
Compound,"ED50 [1, 5] [mg/kg]","ED50 [1, 6] [mg/kg]",pIC50 [2],Inhibition rate ([2]; test compd. 10^-3 M) [%],LD50 at 168 h [3] [mg/kg],LD50 at 168 h [4] [mg/kg],Inhibition rate ([2]; test compd. 3 × 10^-4 M) [%],Inhibition rate ([2]; test compd. 3 × 10^-5 M) [%],Inhibition rate ([2]; test compd. 10^-4 M) [%]
"O=C(O)c1cc(=O)c2c(OCC(O)COc3cccc4oc(C(=O)O)cc(=O)c34)cccc2o1 [DSCG, disodium chromoglycate, reference compound]",3.3,> 200,< 3.00,6,,,,,
"CC(C)COc1ccccc1Nc1ncc(C(=O)O)c(=O)[nH]1 [Example 52, 1,6-dihydro-2-[2-(2-methylpropoxy)anilino]-6-oxo-5-pyrimidinecarboxylic acid]",4.7,39,3.81,,> 3000,780,87.9,12.2,26.2
"CCCOc1ccccc1Nc1ncc(C(=O)O)c(=O)[nH]1 [Example 49, 1,6-dihydro-2-(2-propoxyanilino)-6-oxo-5-pyrimidinecarboxylic acid]",11,22.2,3.31,97.3,> 3000,1160,17.9,,8.1
"CCCCOc1ccccc1Nc1ncc(C(=O)O)c(=O)[nH]1 [Example 51, 1,6-dihydro-2-(2-butoxyanilino)-6-oxo-5-pyrimidinecarboxylic acid]",10.7,92,,,> 3000,1230,,,
"CCOc1ccccc1Nc1ncc(C(=O)O)c(=O)[nH]1 [Example 48, 1,6-dihydro-2-(2-ethoxyanilino)-6-oxo-5-pyrimidinecarboxylic acid]",20.2,98,,,> 3000,> 500,,,
"CC(C)Oc1ccccc1Nc1ncc(C(=O)O)c(=O)[nH]1 [Example 50, 1,6-dihydro-2-[b 2-(1-methylethoxy)anilino]-6-oxo-5-pyrimidinecarboxylic acid]",13,75,,,,,,,
"COc1ccc(/C=C/C(=O)Nc2ccccc2C(=O)O)cc1OC [Tranilast, reference compound]",40,110,< 3.00,48.2,780,430,32.4,,23.5

# From patent publication US4666915A, “2-anilino-1,6-dihydro-6-oxo-5-pyrimidine-carboxylic acid derivatives, process for the preparation thereof, and antiallergic agent containing the same” (Morishita Pharmaceutical Co. Ltd., priority 1984, dated 1987)
